Data from paper PMC10362274 (iScience, 2023).

Biological target: HLA-A∗02:01 (Homo sapiens, UniProt P04439, D140Y/D185E/D98H/E176V/E277Q/G131W/G231S/I119V/I121R/I166T/I218V/L300P/L318F/N151K/N90K/P208A/P217A/Q86G/Q94H/R138H/R169H/T345S)
Assay type: binding
Conditions: n = 2

YM2SODGTM6SOSQV [M2SOM6SO]
IC50 compared with the native peptide: increased
